From US7074798B2, “Xanthine derivative and DPPIV inhibitor” (Eisai Co., Ltd, priority 2002, dated 2006)
Where a name gives a salt, the structure may show the parent alone.

How the values were obtained:
[1] = target: T1, DPP-IV obtained from swine kidney (Sus scrofa, UniProt P22411); experiment: Determination of the inhibition action of DPPIV; assay type: biochemical; settings: Gly-Pro-p-nitroanilide 0.33 mM, absorbance 405 nm
T1 construct: DPP-IV obtained from swine kidney; from tissue; host or cells: swine kidney
Experimental: DPP-IV obtained from swine kidney was dissolved in reaction buffer (50 mM Tris-HCl pH 7.4, 0.1% BSA) at a concentration of 10 mU/mL, and 110 μl of the solution was added. Then, medicament (15 μl) was added thereto, and the mixture was incubated at room temperature for 20 minutes. Gly-Pro-p-nitroanilide (25 μl, final concentration: 0.33 mM) dissolved to 2 mM was added to the mixture to start enzymatic reaction. The reaction time was 20 minutes, and 1N phosphoric acid solution (25 μl) was added to the mixture to quench the reaction.

male C57BL/6N mouse = experiment: Effect on glucose tolerance of normal mouse (oral glucose loading); assay type: in vivo; settings: 2 h, 30 min before glucose 2 g/kg, AUC0-120, 0.5% MC = 100%, NVP DPP728 10 mg/kg = 0%, lower = better, read-out: Improvement degree of glucose tolerance; for response vs control in vivo at 3 mg/kg: 3 mg/kg oral
Experimental: Effect on Glucose Tolerance of Normal Mouse
male C57BL/6N mouse (purchased from CHARLES RIVER JAPAN, INC.)
A suspension of the test compound and NVP DPP728 or 0.5% MC solution (solvent control group) were orally administered at a dose of 10 mL/kg, and after 30 minutes, glucose solution was orally administered at a dose of 10 mL/kg. Glucose was orally administered at a dose of 2 g/kg.
Immediately before the administration of the test substance and NVP DPP728, immediately before the administration of the glucose solution and at 30 minutes, 60 minutes, and 120 minutes after the administration, a tail vein of the mouse was injured to slightly bleed by a razor under no anesthesia. 10 μl of blood was collected and was immediately mixed with 0.6M perchloric acid (140 μl). Glucose in the supernatant obtained by centrifugation (1500 g, 10 minutes, 4° C., refrigerated centrifuge GS-6KR, Beckman Instruments, Inc.) was measured using Glucose CII-Test Wako (Wako Pure Chemical Industries, Ltd.).
Area under the curve of blood glucose level-time (AUC0-120; Area Under the Curve) from the time of administration of glucose to 120 minutes after administration was calculated for respective administration groups, i.e., 0.5% MC solution, NVP DPP728, and the test compounds. Taking the AUC0-120 of the 0.5% MC solution administration group as 100% and the AUC0-120 of NVP DPP728 (10 mg/kg) administration group as 0%, the improvement degree of the glucose tolerance of a test compound was calculated using the following formula: Improvement degree of the glucose tolerance (%)=(AUC0-120 of the test compound−AUC0-120 of the NVP DPP728 (10 mg/kg) administration group)/(AUC0-120 of the 0.5% MC solution administration group−AUC0-120 of the NVP DPP728 (10 mg/kg) administration group)×100. • The lower the % value, the greater the improvement degree of the glucose tolerance will be.

T1 sequence (P22411 whole entry): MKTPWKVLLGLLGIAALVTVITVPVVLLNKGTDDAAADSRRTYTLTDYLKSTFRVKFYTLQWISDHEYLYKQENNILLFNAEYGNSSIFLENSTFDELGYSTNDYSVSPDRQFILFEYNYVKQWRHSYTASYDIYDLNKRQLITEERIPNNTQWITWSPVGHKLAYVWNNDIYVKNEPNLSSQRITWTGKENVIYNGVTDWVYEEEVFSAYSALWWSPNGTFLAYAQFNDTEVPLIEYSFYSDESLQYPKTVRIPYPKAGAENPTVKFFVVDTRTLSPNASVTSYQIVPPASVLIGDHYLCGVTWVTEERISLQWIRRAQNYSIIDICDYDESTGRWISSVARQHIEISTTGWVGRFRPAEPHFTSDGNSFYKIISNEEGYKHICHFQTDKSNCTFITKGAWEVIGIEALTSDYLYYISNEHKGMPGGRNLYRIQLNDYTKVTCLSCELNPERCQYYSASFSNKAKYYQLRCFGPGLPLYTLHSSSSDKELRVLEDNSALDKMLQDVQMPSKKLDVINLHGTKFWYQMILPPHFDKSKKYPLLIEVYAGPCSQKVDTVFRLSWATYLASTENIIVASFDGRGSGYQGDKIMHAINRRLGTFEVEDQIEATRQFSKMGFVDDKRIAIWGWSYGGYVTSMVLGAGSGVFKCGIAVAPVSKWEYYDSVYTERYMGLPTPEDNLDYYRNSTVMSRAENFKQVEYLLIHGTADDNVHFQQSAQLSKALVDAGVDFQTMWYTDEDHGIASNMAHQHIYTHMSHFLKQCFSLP

IC50 [1] | Compound | response vs control in vivo at 3 mg/kg (male C57BL/6N mouse) | response vs control in vivo at 1 mg/kg (male C57BL/6N mouse; 1 mg/kg oral)
24.1 nM | Cn1c(=O)n(CCc2ccccc2)c(=O)c2c1nc(N1CCCNCC1)n2Cc1ccccc1 [Control compound 1, reference compound] | 49.2% | –
– | CC#CCn1c(N2CCNCC2)nc2c1c(=O)n(CC(=O)c1ccccc1)c(=O)n2CCOCC [Example 323, 7-(2-Butynyl)-3-(2-ethoxyethyl)-1-(2-oxo-2-phenylethyl-8-(piperazin-1-yl)-3,7-dihydropurine-2,6-dione trifluoroacetate] | 0.5% | –
– | CC#CCn1c(N2CCNCC2)nc2c1c(=O)n(CCc1ccccc1)c(=O)n2CC(=O)OCC [Example 326, [7-(2-Butynyl)-2,6-dioxo-1-(2-phenethyl)-8-(piperazin-1-yl)-1,2,6,7-tetrahydropurin-3-yl]acetic acid ethyl ester hydrochloride] | -30.6% | -19.2%
